Laboratory results as given in patent publication US10987408B2, “Compositions and methods for modulating toll-like receptor 2 activation” (THE CLEVELAND CLINIC FOUNDATION, priority 2010, dated 2021).

Assays:
Type in all cases: cell-based
[1] = tested on: HUVEC; experiment: HUVEC tube formation assay
Description: (§1) HUVEC or MLEC cells were seeded on Matrigel-coated plates (BD Bioscience). Medium was supplemented with VEGF or protein adducts as indicated, and cells were further incubated at 37° C. for 8 h. Tube formation was observed using a phase contrast inverted microscope, and photographs were taken from each well. The data were quantified by measuring the length of tubes with ImagePro software.

[2] = tested on: mouse aortic endothelial cells (MAEC); experiment: Mouse aortic ring assay
Description: The mouse aortic ring assay was performed as previously described (Mahabeleshwar, G. H. et al., Methods Mol Med. 129:197-208, 2006).

[3] = tested on: HUVEC; experiment: Cell adhesion assay
Description: We performed cell adhesion assays as described elsewhere (Byzova, T. V. et al., J Cell Biol. 143(7):2081-2092, 1998). Briefly, 10^4 HUVEC or MLEC cells were added to ligand coated wells of a 96-well plate and incubated for 1 h in the presence of CEP-adduct or VEGF as indicated. The cells were washed with and fixed with 4% paraformaldehyde in PBS. Thereafter cells were contrasted by hematoxylin staining and photographs were taken.

[4] = tested on: Mouse Lung Microvascular EC (MLEC); experiment: MLEC tube formation assay; conditions: TLR2^−/− EC
Description: Mouse lungs were excised, minced, and digested using a collagenase-dispase reagent (Roche Diagnostic). Digests were strained and the resulting cell suspension was plated on flasks coated with 1 mg/ml fibronectin. Thereafter, endothelial cells were isolated and characterized as described previously (Mahabeleshwar, G. H. et al., Methods Mol Med. 129:197-208, 2006).
as §1

## Pam3CSK4
[1]
  pro-angiogenic effect, tube formation: as effective a stimulator as CEP or VEGF
[2]; wild type / TLR2^+/+ mice
  pro-angiogenic effect, aortic ring sprouting: induced robust sprouting
[3]
  EC adhesion stimulation: as effective a stimulator as CEP or VEGF

## VEGF
[4]
  EC response, tube formation: not affected by the lack of TLR2
[2]; MyD88^−/− cells
  EC sprouting, aortic ring: not affected by the lack of MyD88
[2]; TLR2^−/− mice
  EC response, aortic ring sprouting: not affected by the lack of TLR2
